In patent US20260285875A1, “INHIBITORS OF PARG” (858 Therapeutics, Inc., priority 2023, published 2026) one finds IC50 data, which are given here for 17 molecules.

The test deals with T1, cellular PARG (Homo sapiens, UniProt Q86W56).
T1 construct: endogenous in cells; host or cells: HeLa
T1 sequence (Q86W56 whole entry): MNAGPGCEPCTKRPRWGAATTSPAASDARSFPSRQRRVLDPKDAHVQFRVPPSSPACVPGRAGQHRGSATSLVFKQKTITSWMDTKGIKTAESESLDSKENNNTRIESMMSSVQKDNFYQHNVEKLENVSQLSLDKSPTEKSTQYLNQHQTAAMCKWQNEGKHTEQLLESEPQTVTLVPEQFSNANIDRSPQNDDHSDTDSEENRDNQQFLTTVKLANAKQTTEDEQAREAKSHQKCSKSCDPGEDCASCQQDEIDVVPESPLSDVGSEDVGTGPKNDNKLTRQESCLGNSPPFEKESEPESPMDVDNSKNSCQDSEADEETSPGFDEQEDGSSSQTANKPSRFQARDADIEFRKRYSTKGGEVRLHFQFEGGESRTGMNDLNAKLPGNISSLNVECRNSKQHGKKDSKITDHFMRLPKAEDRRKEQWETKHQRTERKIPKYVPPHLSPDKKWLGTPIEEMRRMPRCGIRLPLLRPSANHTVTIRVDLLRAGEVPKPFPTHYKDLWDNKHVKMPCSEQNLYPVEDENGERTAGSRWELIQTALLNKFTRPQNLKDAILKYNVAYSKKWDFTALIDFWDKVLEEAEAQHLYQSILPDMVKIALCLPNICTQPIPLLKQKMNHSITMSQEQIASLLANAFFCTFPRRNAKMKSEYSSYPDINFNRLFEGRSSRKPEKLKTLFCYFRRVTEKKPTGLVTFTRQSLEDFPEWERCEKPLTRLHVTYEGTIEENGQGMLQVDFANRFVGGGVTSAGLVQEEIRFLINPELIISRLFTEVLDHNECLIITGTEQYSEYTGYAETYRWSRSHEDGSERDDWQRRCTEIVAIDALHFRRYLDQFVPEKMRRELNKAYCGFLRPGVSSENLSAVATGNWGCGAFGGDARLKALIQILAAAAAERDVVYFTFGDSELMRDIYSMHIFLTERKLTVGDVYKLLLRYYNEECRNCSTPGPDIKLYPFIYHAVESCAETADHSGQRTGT
The experiment in a line: Nuclear PAR accumulation assay (immunofluorescence high-content imaging, MMS-treated HeLa cells). It counts as cell-based. The note with it: 1 hour compound then MMS 50 μg/mL for an additional hour. The method, boiled down: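 HeLa cells pretreated with compound for 1 h at 37° C, then given 50 μg/mL MMS for another hour. After methanol fixation, PAR was immunostained with DAPI nuclear counterstain; per-nucleus intensity and percent PAR-positive cells were imaged at 20× (≥1,000 cells/well). IC50 from four-parameter logistic fit.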
With `[2H]C([2H])(c1cnn(C)c1)N1C(=O)c2cc(S(=O)(=O)NC3(C)CC3)ccc2N2C1=NC[C@H]2C#Cc1cn(C)nc1C` [Example 232, (R)-1-((1,3-dimethyl-1H-pyrazol-4-yl)ethynyl)-4-((1-methyl-1H-pyrazol-4-yl)methyl-d2)-N-(1-methylcyclopropyl)-5-oxo-1,2,4,5-tetrahydroimidazo[1,2-a]quinazoline-7-sulfonamide], the IC50 is below 0.1 µM.
`C[C@@H]1CN=C2N(Cc3ccc(C#N)nc3)C(=O)c3cc(S(=O)(=O)NC4(C)CC4)ccc3N21` [Example 233, (R)-4-((6-cyanopyridin-3-yl)methyl)-1-methyl-N-(1-methylcyclopropyl)-5-oxo-1,2,4,5-tetrahydroimidazo[1,2-a]quinazoline-7-sulfonamide]: the IC50 was below 0.1 µM.
The same measure for `[2H]C([2H])(c1cnn(C)c1)N1C(=O)c2cc(S(=O)(=O)NC3(C)CC3)c(N)cc2N2C1=N[C@H]1CCC[C@H]12` [Example 234, (7aS,10aR)-2-amino-6-((1-methyl-1H-pyrazol-4-yl)methyl-d2)-N-(1-methylcyclopropyl)-5-oxo-6,7a,8,9,10,10a-hexahydro-5H-cyclopenta[4,5]imidazo[1,2-a]quinazoline-3-sulfonamide]: below 0.1 µM.
As to `C[C@@H]1C[C@H](C)N2C(=N1)N(Cc1cnn(C)c1)C(=O)c1cc(S(=O)(=O)NC3(C)CC3)ccc12` [Example 235, (1S,3R)-1,3-dimethyl-5-((1-methyl-1H-pyrazol-4-yl)methyl)-N-(1-methylcyclopropyl)-6-oxo-2,3,5,6-tetrahydro-1H-pyrimido[1,2-a]quinazoline-8-sulfonamide], the IC50 lay in the range of 0.1 to 1 µM.
The same measure for `C[C@@H]1C[C@@H](C)N2C(=N1)N(Cc1cnn(C)c1)C(=O)c1cc(S(=O)(=O)NC3(C)CC3)ccc12` [Example 236, (1R,3R)-1,3-dimethyl-5-((1-methyl-1H-pyrazol-4-yl)methyl)-N-(1-methylcyclopropyl)-6-oxo-2,3,5,6-tetrahydro-1H-pyrimido[1,2-a]quinazoline-8-sulfonamide]: below 0.1 µM; for `[2H]C([2H])(c1cnn(C)c1)N1C(=O)c2cc(S(=O)(=O)NC3(CO)CC3)ccc2N2C1=NC[C@H]2C` [Example 237, (R)-N-(1-(hydroxymethyl)cyclopropyl)-1-methyl-4-((1-methyl-1H-pyrazol-4-yl)methyl-d2)-5-oxo-1,2,4,5-tetrahydroimidazo[1,2-a]quinazoline-7-sulfonamide]: 1 to 10 µM; for `Cc1cc(C#C[C@@H]2CN=C3N(Cc4cnn(C)c4)C(=O)c4cc(S(=O)(=O)NC5(C)CC5)ccc4N32)ccn1` [Example 238, (R)-4-((1-methyl-1H-pyrazol-4-yl)methyl)-N-(1-methylcyclopropyl)-1-((2-methylpyridin-4-yl)ethynyl)-5-oxo-1,2,4,5-tetrahydroimidazo[1,2-a]quinazoline-7-sulfonamide]: below 0.1 µM.
The same measure for `C[C@@H]1CN=C2N(Cc3ccnc(C#N)c3)C(=O)c3cc(S(=O)(=O)NC4(C)CC4)ccc3N21` [Example 239, (R)-4-((2-cyanopyridin-4-yl)methyl)-1-methyl-N-(1-methylcyclopropyl)-5-oxo-1,2,4,5-tetrahydroimidazo[1,2-a]quinazoline-7-sulfonamide]: 0.1 to 1 µM; for `[2H]C([2H])(c1cnn(C)c1)N1C(=O)c2cc(S(=O)(=O)NC3(C)CC3)c(SC)cc2N2C1=N[C@H]1CCC[C@H]12` [Example 240, (7aS,10aR)-6-((1-methyl-1H-pyrazol-4-yl)methyl-d2)-N-(1-methylcyclopropyl)-2-(methylthio)-5-oxo-6,7a,8,9,10,10a-hexahydro-5H-cyclopenta[4,5]imidazo[1,2-a]quinazoline-3-sulfonamide]: 0.1 to 1 µM.
The same measure for `[2H]C([2H])(c1cnn(C)c1)N1C(=O)c2cc(S(=O)(=O)NC3(C)CC3)ccc2N2C1=NC[C@H]2C#CC1(N(CC)CC)CC1` [Example 241, (R)-1-((1-(diethylamino)cyclopropyl)ethynyl)-4-((1-methyl-1H-pyrazol-4-yl)methyl-d2)-N-(1-methylcyclopropyl)-5-oxo-1,2,4,5-tetrahydroimidazo[1,2-a]quinazoline-7-sulfonamide]: below 0.1 µM; for `[2H]C([2H])(c1cnn(C)c1)N1C(=O)c2cc(S(=O)(=O)NC3(C)CC3)ccc2N2C1=NC[C@H]2C#Cc1ncccc1C` [Example 242, (R)-4-((1-methyl-1H-pyrazol-4-yl)methyl-d2)-N-(1-methylcyclopropyl)-1-((3-methylpyridin-2-yl)ethynyl)-5-oxo-1,2,4,5-tetrahydroimidazo[1,2-a]quinazoline-7-sulfonamide]: below 0.1 µM.
`C[C@@H]1CN=C2N(Cc3cn(C)nc3CC#N)C(=O)c3cc(S(=O)(=O)NC4(C)CC4)ccc3N21` [Example 243, (R)-4-((3-(cyanomethyl)-1-methyl-1H-pyrazol-4-yl)methyl)-1-methyl-N-(1-methylcyclopropyl)-5-oxo-1,2,4,5-tetrahydroimidazo[1,2-a]quinazoline-7-sulfonamide] showed an IC50 below 0.1 µM.
The same measure for `[2H]C([2H])(c1cnn(C)c1)N1C(=O)c2cc(S(=O)(=O)NC3(C)CC3)ccc2N2C1=NC[C@H]2C#CC1(N(C)CCO)CC1` [Example 244, (R)-1-((1-((2-hydroxyethyl)(methyl)amino)cyclopropyl)ethynyl)-4-((1-methyl-1H-pyrazol-4-yl)methyl-d2)-N-(1-methylcyclopropyl)-5-oxo-1,2,4,5-tetrahydroimidazo[1,2-a]quinazoline-7-sulfonamide]: below 0.1 µM.
The same measure for `CCN1C(=O)c2cc(S(=O)(=O)NC3(C)CC3)ccc2N2C1=NC[C@H]2C#Cc1c(F)cnn1C` [Example 245, (R)-4-ethyl-1-((4-fluoro-1-methyl-1H-pyrazol-5-yl)ethynyl)-N-(1-methylcyclopropyl)-5-oxo-1,2,4,5-tetrahydroimidazo[1,2-a]quinazoline-7-sulfonamide]: below 0.1 µM; for `[2H]C([2H])(c1cnn(C)c1)N1C(=O)c2cc(S(=O)(=O)NC3(C)CC3)ccc2N2C1=NC[C@H]2C#Cc1cncnc1` [Example 246, (R)-4-((1-methyl-1H-pyrazol-4-yl)methyl-d2)-N-(1-methylcyclopropyl)-5-oxo-1-(pyrimidin-5-ylethynyl)-1,2,4,5-tetrahydroimidazo[1,2-a]quinazoline-7-sulfonamide]: below 0.1 µM.
The same measure for `C[C@@H]1CN=C2N(Cc3cccnc3CC#N)C(=O)c3cc(S(=O)(=O)NC4(C)CC4)ccc3N21` [Example 247, (R)-4-((2-(cyanomethyl)pyridin-3-yl)methyl)-1-methyl-N-(1-methylcyclopropyl)-5-oxo-1,2,4,5-tetrahydroimidazo[1,2-a]quinazoline-7-sulfonamide]: 0.1 to 1 µM; for `Cn1cc(CN2C(=O)c3cc(S(=O)(=O)NC4(C)CC4)ccc3N3C2=NC[C@H]3C#C[C@H]2CCCN2)cn1` [Example 248, (R)-4-((1-methyl-1H-pyrazol-4-yl)methyl)-N-(1-methylcyclopropyl)-5-oxo-1-(((R)-pyrrolidin-2-yl)ethynyl)-1,2,4,5-tetrahydroimidazo[1,2-a]quinazoline-7-sulfonamide]: 0.1 to 1 µM.

As usually defined, the IC50 is the concentration that inhibits the measured activity by half.
